Drawing on PubChem BioAssay AID2060610 (Molecular Pharmacology Branch, DTP, NCI, 2025), this text covers viability, T/C and IC50 for 4 compounds.

Where “and” joins values, the source holds several entries; their conditions need not be identical. Equal values may be shown once. Some results are limits rather than exact numbers.

In this assay the test system is 616215-338-R-J1-PDC complex spheroids, viability % test/control. The experiment in a line: Anticancer human tumor 616215-338-R-J1-PDC patient-derived colon adenocarcinoma cell line growth inhibition [CLK]. The conditions noted are these: for viability, T/C: stronger effect = lower value. The essentials: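 Patient-derived tumor cells grown as complex spheroids with HUVEC endothelial cells and mesenchymal stem cells, treated with drug combinations. Concentrations descend in half-log steps from near clinical Cmax, or from 10 microM if Cmax unknown.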
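Also: spheroids exposed to agents for 7 days.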
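For viability, T/C in this document: 100% = DMSO vehicle wells.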

Turning to `Nc1ccccc1NC(=O)c1ccc(CNC(=O)OCc2cccnc2)cc1`, the viability, T/C runs as follows: (compound 0.0316 µM) 102% and 86.2%; (compound 0.1 µM) 98.2% and 95.1%; (compound 0.316 µM) 101% and 81.6%; (compound 1 µM) 107% and 92.8%; (compound 3.16 µM) 55.6% and 80.4%; (compound 10 µM) 13.5% and 14.7%. Further, the IC50 (curve of compound) is 3690 nM and 5380 nM.

In the case of `NC(=O)C(=Cn1cnc(-c2cc(C(F)(F)F)cc(C(F)(F)F)c2)n1)c1cncnc1`, the viability, T/C is 99.3% and 94.8% (compound 0.00949 µM); 103% and 87.1% (compound 0.03 µM); 103% and 94.1% (compound 0.0949 µM); 66.9% and 87.5% (compound 0.3 µM); 35.8% and 33.5% (compound 0.949 µM); 15% and 17.6% (compound 3 µM). Also, under “curve of compound”, the IC50 was 562 nM and 668 nM.

Turning to `C=CC(=O)N1CCN(c2nc(=O)n(-c3c(C)ccnc3C(C)C)c3nc(-c4c(O)cccc4F)c(F)cc23)C(C)C1` (stereo not drawn), the viability, T/C is, setting by setting: (compound 0.0316 µM) 95.4% and 104%; (compound 0.1 µM) 101% and 108%; (compound 0.316 µM) 106% and 119%; (compound 1 µM) 112% and 98.6%; (compound 3.16 µM) 108% and 110%; (compound 10 µM) 106% and 113%. The IC50 (curve of compound) is over 10000 nM.

With `C#Cc1c(F)ccc2cc(O)cc(-c3ncc4c(N5CC6CCC(C5)N6)nc(OCC56CCCN5CC(F)C6)nc4c3F)c12` (stereo not drawn) + CN1CCN(c2cc(C(=O)Nc3cc4cc(-c5cnn(C)c5)ccc4cn3)ccn2)CC1, the IC50 (curve of first compound, second compound 0.0316 µM) is over 10000 nM; the IC50 (curve of first compound, second compound 0.1 µM) is over 10000 nM; the IC50 (curve of first compound, second compound 0.316 µM) was under 31.6 nM; the IC50 (curve of first compound, second compound 1 µM) is under 31.6 nM; the IC50 (curve of first compound, second compound 3.16 µM) is under 31.6 nM; the IC50 (curve of first compound, second compound 10 µM) was under 31.6 nM. Also, the viability, T/C (second compound 0.0316 µM, first compound 0.0316 µM) is 93.7%; the viability, T/C (second compound 0.0316 µM, first compound 0.1 µM) is 91.2%; the viability, T/C (second compound 0.0316 µM, first compound 0.316 µM) was 109%; the viability, T/C (second compound 0.0316 µM, first compound 1 µM) is 102%; the viability, T/C (second compound 0.0316 µM, first compound 3.16 µM) was 106%; the viability, T/C (second compound 0.0316 µM, first compound 10 µM) was 99.1%. The viability, T/C runs as follows: (second compound 0.1 µM, first compound 0.0316 µM) 101%; (second compound 0.1 µM, first compound 0.1 µM) 103%; (second compound 0.1 µM, first compound 0.316 µM) 94.7%; (second compound 0.1 µM, first compound 1 µM) 101%; (second compound 0.1 µM, first compound 3.16 µM) 102%; (second compound 0.1 µM, first compound 10 µM) 74.7%. Besides, the viability, T/C by setting is: (second compound 0.316 µM, first compound 0.0316 µM) 36.2%; (second compound 0.316 µM, first compound 0.1 µM) 38.8%; (second compound 0.316 µM, first compound 0.316 µM) 30%; (second compound 0.316 µM, first compound 1 µM) 33.3%; (second compound 0.316 µM, first compound 3.16 µM) 24.7%; (second compound 0.316 µM, first compound 10 µM) 18.8%. The viability, T/C (second compound 1 µM, first compound 0.0316 µM) is 0.17%; the viability, T/C (second compound 1 µM, first compound 0.1 µM) is 0.82%; the viability, T/C (second compound 1 µM, first compound 0.316 µM) is 0.2%; the viability, T/C (second compound 1 µM, first compound 1 µM) was 0.18%; the viability, T/C (second compound 1 µM, first compound 3.16 µM) was 0.17%; the viability, T/C (second compound 1 µM, first compound 10 µM) was 0.71%. Also, the viability, T/C is 0.13% (second compound 3.16 µM, first compound 0.0316 µM); 2.81% (second compound 3.16 µM, first compound 0.1 µM); 0.12% (second compound 3.16 µM, first compound 0.316 µM); 0.12% (second compound 3.16 µM, first compound 1 µM); 0.13% (second compound 3.16 µM, first compound 3.16 µM); 3.3% (second compound 3.16 µM, first compound 10 µM). The viability, T/C reads like this: (second compound 10 µM, first compound 0.0316 µM) 0.18%; (second compound 10 µM, first compound 0.1 µM) 1.06%; (second compound 10 µM, first compound 0.316 µM) 0.16%; (second compound 10 µM, first compound 1 µM) 0.18%; (second compound 10 µM, first compound 3.16 µM) 0.18%; (second compound 10 µM, first compound 10 µM) 2.17%.
